According to patent publication US10875858B2, “Process for preparing halogenated pyridine derivatives” (Bayer CropScience Aktiengesellschaft, priority 2016, dated 2020):

Test: log P by HPLC-MS
Type: physicochemical

In order of rising chromatographic logP:
1. Cn1cnc2cc(C(F)(F)F)nnc21 [Example 5, 7-methyl-3-(trifluoromethyl)-7H-imidazo[4,5-c]pyridazine]  0.95
2. COC(=O)c1ccc(F)c(-c2nc3cc(C(F)(F)F)ncc3n2C)n1 [Example 3, methyl 5-fluoro-6-[3-methyl-6-(trifluoromethyl)-3H-imidazo[4,5-c]pyridin-2-yl]pyridine-2-carboxylate]  2.03
3. COC(=O)c1ccc(F)c(-c2nc3cc(C(F)(F)F)nnc3n2C)n1 [Example 7, methyl 5-fluoro-6-[7-methyl-3-(trifluoromethyl)-7H-imidazo[4,5-c]pyridazin-6-yl]pyridine-2-carboxylate]  2.09
4. Cn1c(-c2nc(Cl)ccc2F)nc2cc(C(F)(F)F)ncc21 [Example 2, 2-(6-chloro-3-fluoropyridin-2-yl)-3-methyl-6-(trifluoromethyl)-3H-imidazo[4,5-c]pyridine]  2.38
5. Cn1c(-c2nc(Cl)ccc2F)nc2cc(C(F)(F)F)nnc21 [Example 6, 6-(6-chloro-3-fluoropyridin-2-yl)-7-methyl-3-(trifluoromethyl)-7H-imidazo[4,5-c]pyridazine]  2.46
6. Cn1c(-c2nc(Br)ccc2F)nc2cc(C(F)(F)F)ncc21 [Example 4, 2-(6-bromo-3-fluoropyridin-2-yl)-3-methyl-6-(trifluoromethyl)-3H-imidazo[4,5-c]pyridine]  2.51
7. Cn1c(-c2nc(Br)ccc2F)nc2cc(C(F)(F)F)nnc21 [Example 8, 6-(6-bromo-3-fluoropyridin-2-yl)-7-methyl-3-(trifluoromethyl)-7H-imidazo[4,5-c]pyridazine]  2.58
